Measured values published in PMC11073428, “The activity of pyrazolo[4,3-e][1,2,4]triazine and pyrazolo[4,3-e]tetrazolo[1,5-b][1,2,4]triazine sulphonamide derivatives in monolayer and spheroid breast cancer cell cultures” (Journal of Enzyme Inhibition and Medicinal Chemistry, 2024).
Read-outs that look alike come from different tables or passages of the source.

Key:
[1] = tested on: MDA-MB-231 breast cancer cells; test: MTT viability assay, MDA-MB-231; settings: for IC50: Homo sapiens, MDA-MB-231, 24 h, read-out: Cytotoxicity IC50 MDA-MB-231
Procedure: (§7) Following 24-h incubation with tested compounds, the medium was discarded from the cell cultures. Then, into each well with cells was added 1 mL of PBS and 50 µL of MTT solution (5 mg per mL). Cells were incubated at 37 °C and 5% CO2 in humidified atmosphere for a defined time appropriate for each cell line. After incubation, the solution above the cells was removed and obtained purple formazan crystals were dissolved in 1 mL DMSO. The absorbance was read at OD = 570 nm on Evolution 201 Spectrophotometer (Thermo Scientific, Waltham, MA).

[2] = tested on: MCF-7 breast cancer cells; test: MTT viability assay, MCF-7; settings: for IC50: Homo sapiens, MCF7, 24 h, read-out: Cytotoxicity IC50 MCF-7
Procedure: as §7

[3] = in vitro; settings: human
[4] = tested on: MDA-MB-231 spheroids; test: 3D spheroid culture, MDA-MB-231; format: cell-based, human; settings: 0.25 µM and 0.5 µM
Procedure: (§1) The 3D cell culture was carried out with 6-Well Bio-Assembler Kit in accordance with the manufacturer’s instructions (Greiner Bio-One GmbH, Frickenhausen, Germany). First, MCF-7 and MDA-MB-231 were cultured in 2D using procedure and supplied to 80% confluency and treated with nanoshuttle at concentration of 1 µL/10 000 cell and incubated overnight. Following incubation, the medium was removed, and the cells were detached by trypsin–EDTA solution and resuspended in DMEM. The cells were counted using Scepter 2.0 Handheld Automated Cell Counter (Merck, Darmstadt, Germany) and plated at the concentration 1 × 10^6 cells per well in six-well plate. Then, cells were gently tilted in the flask to evenly distribute the nanoparticle and incubated (37 °C, 5% CO2, 95–98% humidity) for 1 h with magnet on the top of the plate. The cells self-assemble to spheroids. The obtained 3D cell culture was incubated until analysis.
(§2) The visualisation of the morphological changes in 3D cell culture of MCF-7 and MDA-MB-231 was evaluated using microscope (Nikon Eclipse Ti, Tokyo, Japan).
(§3) The mean ± standard deviation (SD) for all data is presented. One-way and two-way analysis of variance (ANOVA) was conducted followed by Dunnett’s test. GraphPad 8.0.1 Prism software (GraphPad Software, San Diego, CA) was used for calculation. The analysis of spheroids area was carried out using ImageJ software from the NIH (Bethesda, MD).

[5] = tested on: MCF-7 spheroids; test: 3D spheroid culture, MCF-7; format: cell-based, human; settings: 0.25 µM and 0.5 µM
Procedure: as §1, §2, §3

[6] = tested on: MCF-7 breast cancer cells; test: Apoptosis, annexin V-FITC/PI flow cytometry, MCF-7; format: cell-based, human; settings: 24 h; for early and late apoptotic cells: MCF-7, 0.5 µM
Procedure: (§4) The analysis was performed using flow cytometry Apoptosis Detection Kit II (BD Biosciences, San Diego, CA) as described previously.

[7] = tested on: MDA-MB-231 breast cancer cells; test: Apoptosis, annexin V-FITC/PI flow cytometry, MDA-MB-231; format: cell-based, human; settings: 24 h; for early and late apoptotic cells: MDA-MB-231, 0.5 µM
Procedure: as §4

[8] = tested on: beclin-1 in MCF-7 cells; test: Anti-beclin-1 antibody flow cytometry, MCF-7; format: cell-based, human; settings: MCF-7, 0.5 µM, 24 h
Procedure: (§5) The fixation and permeabilisation were performed as described above. Cells were resuspended in 100 µL of diluted primary antibody (1:100 in PBS, anti-beclin 1 antibody (2A4) #ab114071, Abcam, Cambridge, UK) and incubated 30 min in the dark at RT. The cells were washed three times by centrifugation in PBS. Then to each probe, 100 µL of diluted fluorochrome-labelled secondary antibody (1:100 in PBS; goat anti-mouse IgG H&L – Alexa Fluor 488 #ab150113, Abcam, Cambridge, UK) was added and incubated 30 min in dark at RT. Then, cells were rinsed with 2.5 mL PBS. In the last step, supernatant was discarded and cells were resuspended in 300 µL PBS and pipetted. The analysis was carried out by flow cytometry.

[9] = tested on: MCF-7 breast cancer cells; set-up: method as in PMID 27488500; settings: 24 h incubation; read-out: IC50 in MCF-7 (previous studies); cited from earlier work
[10] = tested on: beclin-1 in MDA-MB-231 cells; test: Anti-beclin-1 antibody flow cytometry, MDA-MB-231; format: cell-based, human; settings: MDA-MB-231, 0.5 µM, 24 h
Procedure: as §5

[11] = tested on: MDA-MB-231 breast cancer cells; set-up: method as in PMID 27488500; settings: 24 h incubation; read-out: IC50 in MDA-MB-231 (previous studies); cited from earlier work
[12] = tested on: Bax in MCF-7 cells; test: Anti-Bax antibody flow cytometry, MCF-7; format: cell-based, human; settings: MCF-7, 24 h
Procedure: (§6) To evaluate the molecular mechanism of induction of apoptosis of tested compounds, the level of p53, NF-κB, mTOR, Bax, and beclin-1 was measured using appropriate antibody according to the manufacturer’s instruction. In brief, tryspinised cells were centrifuged, then supernatant was discarded, and cells were suspended in 4% FA (formaldehyde). Prepared samples were incubated 15 min at RT. Following incubation, the 2.5 mL PBS was added to each sample and centrifuged. Then, supernatant was discarded, and cells were resuspended in 90% ice-cold methanol to perform permeabilisation and left for 1 h in ice. To remove methanol, cells were rinsed with excess PBS by centrifugation. Following centrifugation, the supernatant was discarded. Then, cells were resuspended in 100 µL of appropriate diluted (1:100 in PBS) antibody conjugate (p53 (7F5) Rabbit mAb – Alexa Fluor 488 Conjugate #5429 Cell Signalling Technology, Danvers, MA; NF-κB p65 (D14E12) XP Rabbit mAb – Alexa Fluor 647 Conjugate #8801 Cell Signalling Technology, Danvers, MA; mTOR (7C10) Rabbit mAB – Alexa Fluor 647 #5048 Cell Signalling Technology, Danvers, MA; FITC Anti-Bax antibody (T22-A) #ab139543, Abcam, Cambridge, UK) and incubated 1 h in the dark at RT. Afterwards, cells were washed by centrifugation in 2 mL of incubation buffer. Finally, supernatant was removed and 300 µL PBS was added to each sample and pipetted. The analysis was performed by flow cytometry (BD FACSCanto II, Becton Dickinson Biosciences Systems, San Jose, CA) using FACSDiva software ver. 6.1.3.

[13] = tested on: MCF-10A normal breast cells; set-up: method as in PMID 32575817; settings: 24 h incubation; read-out: IC50 in MCF-10A (previous studies); cited from earlier work
[14] = tested on: Bax in MDA-MB-231 cells; test: Anti-Bax antibody flow cytometry, MDA-MB-231; format: cell-based, human; settings: MDA-MB-231, 24 h
Procedure: as §6

[15] = ratio of cytotoxicity, 3a vs 2a, 3b vs 2b

| melting point [°C] | IC50 at 24 h [3] [µM] | Compound | IC50 [1] [µM] | IC50 [2] [µM] | effect on spheroid formation (in words) [4] | effect on spheroid formation (in words) [5] | apoptotic cells ([6]; MCF-7, 0.25 µM) [%] | early and late apoptotic cells [6] [%] | apoptotic cells ([7]; MDA-MB-231, 0.25 µM) [%] | early and late apoptotic cells [7] [%] | cells with active beclin-1 [8] [%] | IC50 [9] [µM] | cells with active beclin-1 [10] [%] | IC50 [11] [µM] | number of cells with active Bax (in words) [12] | IC50 [13] [µM] | number of cells with active Bax (in words) [14] | times stronger than the corresponding sulphonyl derivative (2a or 2b), MDA-MB-231 [1, 15] [times] | times stronger than the corresponding sulphonyl derivative (2a or 2b), MCF-7 [2, 15] [times] |
| --- | --- | --- | --- | --- | --- | --- | --- | --- | --- | --- | --- | --- | --- | --- | --- | --- | --- | --- | --- |
| 130 to 134 | > 10 | Cc1nn(-c2ccc(S(=O)(=O)N[C@H](CO)Cc3ccccc3)cc2)c2nnc(S(C)(=O)=O)nc12 [Compound 2a, (S)-N-(1-Hydroxy-3-phenylpropan-2-yl)-4-(3-methyl-5-(methylsulfonyl)-1H-pyrazolo[4,3-e][1,2,4]triazin-1-yl)benzenesulfonamide] | 9.2 ± 0.78 | 6 ± 0.38 | – | – | – | – | – | – | – | – | – | – | – | – | – | – | – |
| 124 to 128 | > 10 | Cc1nn(-c2ccc(S(=O)(=O)N[C@@H](CO)Cc3ccccc3)cc2)c2nnc(S(C)(=O)=O)nc12 [Compound 2b, (R)-N-(1-Hydroxy-3-phenylpropan-2-yl)-4-(3-methyl-5-(methylsulfonyl)-1H-pyrazolo[4,3-e][1,2,4]triazin-1-yl)benzenesulfonamide] | 7.8 ± 0.53 | 5.5 ± 0.39 | slower formation of spheroids compared to untreated cells | slower formation of spheroids compared to untreated cells | 9.8 ± 1.2 | 14.6 ± 1.7 | 5.7 ± 0.6 | 5.8 ± 1.8 | – | – | – | – | – | – | – | – | – |
| – | – | N.N.[Cl][Pt][Cl] [Cisplatin, cisplatin, reference compound] | – | – | slightly affected growth of spheroids | slightly affected growth of spheroids | – | 7.1 ± 0.9 | – | 7.6 ± 0.6 | 4.1 ± 0.5 | 93 | 3.6 ± 0.7 | 82 | at the control level | > 100 | at the control level | – | – |
| 172 to 176 | 3.5 ± 0.18 | Cc1nn(-c2ccc(S(=O)(=O)N[C@H](CO)Cc3ccccc3)cc2)c2nn3nnnc3nc12 [Compound 3a, (S)-N-(1-Hydroxy-3-phenylpropan-2-yl)-4-(7-methyl-5H-pyrazolo[4,3-e]tetrazolo[1,5-b][1,2,4]triazin-6-yl)benzenesulfonamide] | 0.71 ± 0.14 | 0.35 ± 0.08 | – | – | – | – | – | – | – | – | – | – | – | – | – | ~13 | 17 |
